Measured values taken from publication PMC7177216, “A Novel Highly Sensitive Method for Measuring Inflammatory Neural-Derived APC Activity in Glial Cell Lines, Mouse Brain and Human CSF” (International Journal of Molecular Sciences, 2020).

Assays:
bovine FXa = molecular target: T1, bovine FXa (Bos taurus, UniProt P00743); settings: 1 µM inhibitor; 20 µM substrate; 1 mM CaCl2, 50 mM Tris-HCl pH 8.0; 37 °C
T1 construct: gene F10

Bovine thrombin = molecular target: T2, Bovine thrombin (Bos taurus, UniProt P00735); settings: 1 µM inhibitor; 20 µM substrate; 1 mM CaCl2, 50 mM Tris-HCl pH 8.0; 37 °C
T2 construct: gene F2

T1 sequence (P00743 41-180): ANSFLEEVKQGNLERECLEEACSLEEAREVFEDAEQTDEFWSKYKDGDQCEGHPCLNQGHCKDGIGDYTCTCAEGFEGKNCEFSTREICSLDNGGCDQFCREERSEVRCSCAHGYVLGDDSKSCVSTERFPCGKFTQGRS
T1 sequence (P00743 234-492): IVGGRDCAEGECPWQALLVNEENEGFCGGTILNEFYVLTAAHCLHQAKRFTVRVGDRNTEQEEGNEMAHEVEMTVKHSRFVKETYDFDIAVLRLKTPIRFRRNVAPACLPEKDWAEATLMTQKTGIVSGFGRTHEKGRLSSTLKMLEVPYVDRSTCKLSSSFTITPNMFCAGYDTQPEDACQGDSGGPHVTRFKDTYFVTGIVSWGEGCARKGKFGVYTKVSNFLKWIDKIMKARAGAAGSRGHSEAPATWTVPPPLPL

N=C(N)c1ccc(CC(NC(=O)CNS(=O)(=O)c2ccc3ccccc3c2)C(=O)N2CCCCC2)cc1 (centres unmarked) [NAPAP]
inhibition of cleavage of Pyr-Pro-Arg-AMC (fluorescence) (bovine FXa): FXa activity was fully blocked by apixaban and partially blocked by NAPAP
inhibition of cleavage of Pyr-Pro-Arg-AMC (fluorescence) (Bovine thrombin): cleavage of the substrate by thrombin was fully blocked by NAPAP
